Among the data in article PMC9549714 (iScience, 2022) are IC50 values, retold here.

Assay [1] deals with T1, PPAT (phosphoribosyl pyrophosphate amidotransferase) (Homo sapiens, UniProt Q06203). Nature of the assay: glutamate production from glutamine and PRPP, glutamate assay kit. Format: biochemical.
The target in assay [2] is T1, PPAT (phosphoribosyl pyrophosphate amidotransferase). Kind of assay: PPAT activity assay, presumably as above. Format: biochemical.

T1 sequence (Q06203 12-517): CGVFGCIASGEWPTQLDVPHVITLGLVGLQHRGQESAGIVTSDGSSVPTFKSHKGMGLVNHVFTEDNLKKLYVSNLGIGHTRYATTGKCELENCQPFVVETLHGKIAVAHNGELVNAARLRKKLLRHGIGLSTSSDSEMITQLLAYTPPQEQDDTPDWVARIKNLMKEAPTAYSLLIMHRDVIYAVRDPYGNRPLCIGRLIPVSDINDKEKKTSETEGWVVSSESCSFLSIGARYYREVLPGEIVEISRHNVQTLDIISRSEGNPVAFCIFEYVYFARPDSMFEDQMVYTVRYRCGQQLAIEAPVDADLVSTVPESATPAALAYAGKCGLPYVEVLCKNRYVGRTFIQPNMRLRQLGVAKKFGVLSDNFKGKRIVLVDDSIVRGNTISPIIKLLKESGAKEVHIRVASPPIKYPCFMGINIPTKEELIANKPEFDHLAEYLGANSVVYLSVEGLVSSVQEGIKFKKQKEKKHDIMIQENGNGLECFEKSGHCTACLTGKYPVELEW

What is called IC50 is the concentration that gives 50% inhibition. `Cc1cc2nc3c(=O)[nH]c(=O)nc-3n(C[C@H](O)[C@H](O)[C@H](O)COP(=O)(O)O)c2cc1C` [ZINC8551105, riboflavin 5′-monophosphate]: the IC50 in assay [1] turned out to be 7.5 µM.

`Cc1cc2nc3c(=O)[nH]c(=O)nc-3n(C[C@H](O)[C@H](O)[C@H](O)CO)c2cc1C` [riboflavin] came in with an IC50 in assay [2] of 49.9 µM.
